Activity calls are given as the source filed them. The calls are words filed in the database; no cut-off is given here.
Columns and labels:
[1] = Antiproliferation activity against human Med1 assessed as reduction in cell viability after 24 hrs by Trypan blue exclusion assay; type: functional, cell-based; conditions: Medulloblastoma cell
Medulloblastoma cell [2] = test: Antiproliferation activity against human Med1 assessed as reduction in cell viability at […] after 24 hrs by Trypan blue exclusion assay; type: functional, cell-based
Medulloblastoma cell [3] = test: Antiproliferation activity against human Med1 assessed as reduction in cell viability at 1 mM after 24 hrs by Trypan blue exclusion assay; type: functional, cell-based
[4] = molecular target: T1, L-lactate dehydrogenase A chain (Homo sapiens, UniProt P00338); test: Inhibition of LDHA in human liver using pyruvate as substrate incubated for 3 mins by fluorescence assay; type: tissue-based
HCT-116 [5] = test: Antiproliferation activity against human HCT-116 cells assessed as reduction in cell viability after 24 hrs in presence of rotenone by Trypan blue exclusion assay; type: functional, cell-based
[6] = molecular target: T1, L-lactate dehydrogenase A chain; test: Inhibition of LDHA in human Med1 cells using pyruvate as substrate incubated 10 mins by spectrophotometric analysis; type: cell-based, Medulloblastoma cell
[7] = molecular target: T1, L-lactate dehydrogenase A chain; test: Inhibition of LDHA in human Med1 cells assessed as reduction in lactate production by measuring ECAR using pyruvate as substrate incubated 6 hrs by seahorse extracellular flux analysis; type: cell-based; conditions: Medulloblastoma cell
HCT-116 [8] = test: Induction of autophagy in human HCT-116 cells assessed as increase in LC3B-I lipidation protein expression level at 80 to 320 uM after 48 hrs by Western blot analysis; type: functional, cell-based; conditions: dose 80-320 µM
PANC-1 = test: Antiproliferation activity against human PANC-1 cells assessed as reduction in cell viability after 24 hrs by Trypan blue exclusion assay; type: functional, cell-based
HCT-116 [9] = test: Induction of […] in human HCT-116 cells assessed as increase in LC3B-I lipidation protein expression level after 48 hrs in presence of rotenone by Western blot analysis; type: functional, cell-based
A549 = test: Antiproliferation activity against human A549 cells assessed as reduction in cell viability after 24 hrs by Trypan blue exclusion assay; type: functional, cell-based
SW-620 = test: Antiproliferation activity against human SW-620 cells assessed as reduction in cell viability after 24 hrs by Trypan blue exclusion assay; type: functional, cell-based
HCT-116 [10] = test: Induction of apoptosis in human HCT-116 cells assessed as increase in cleaved PARP protein expression level after 48 hrs in presence of rotenone by Western blot analysis; type: functional, cell-based
HCT-116 [11] = test: Induction of apoptosis in human HCT-116 cells assessed as increase in cleaved PARP protein expression level at 80 to 320 uM after 48 hrs by Western blot analysis; type: functional, cell-based; conditions: dose 80-320 µM
HCT-116 [12] = test: Antiproliferation activity against human HCT-116 cells assessed as reduction in cell viability after 24 hrs by Trypan blue exclusion assay; type: functional, cell-based
Medulloblastoma cell [13] = test: Antiproliferation activity against human Med1 assessed as reduction in cell viability at 100 uM after 24 hrs by Trypan blue exclusion assay; type: functional, cell-based
[14] = molecular target: L-lactate dehydrogenase B chain (Mus musculus, UniProt P16125); test: Inhibition of mouse LDHB using sodium pyruvate as substrate
L-lactate dehydrogenase B chain, sequence (P16125 whole entry): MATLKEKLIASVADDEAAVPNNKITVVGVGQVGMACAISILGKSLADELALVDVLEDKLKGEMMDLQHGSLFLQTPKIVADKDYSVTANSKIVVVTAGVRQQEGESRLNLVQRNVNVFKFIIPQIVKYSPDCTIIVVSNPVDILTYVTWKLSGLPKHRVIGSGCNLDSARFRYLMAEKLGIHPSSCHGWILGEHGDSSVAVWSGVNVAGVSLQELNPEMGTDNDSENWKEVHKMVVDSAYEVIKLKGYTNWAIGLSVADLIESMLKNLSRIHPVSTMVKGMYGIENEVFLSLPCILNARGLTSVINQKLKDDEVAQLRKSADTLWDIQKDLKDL

SMILES	IC50 [1] [µM]	Activity (Medulloblastoma cell [2])	Activity (Medulloblastoma cell [3])	further results
NC(=O)C(=O)O [SODIUM OXAMATE]	15.9			
Cn1nc(C2CCN(C(=O)NCc3ccccc3)CC2)n(-c2ccccc2)c1=O	1.51	Active	Active	
O=C(O)c1nnn(-c2ccc(F)cc2F)c1-c1ccccc1	1.29	Active	Active	
CSc1cccc(-n2c(=O)n(Cc3ccc(C(=O)O)cc3)c(=O)c3[nH]cnc32)c1	8.31	Active		
O=C(NCc1nn(C2CCCC2)c(=O)c2ccccc12)Nc1ccccc1F	8.46	Active	Active	
Cc1ccc(-c2c(C)c(C(=O)O)nn2-c2ccc(Cl)c(Cl)c2)cc1C	1.14	Active	Active	
O=c1cc2c(=O)oc3cc(O)c(O)oc3c2c(O)c1O				Ki [4]: 5.46 µM
O=c1cc2c(nn1CC1CCN(C3=NS(=O)(=O)c4ccccc43)CC1)CCC2	0.0818	Active	Active	Activity (HCT-116 [5]): Active; IC50 [6]: 0.012 µM; inhibition [7]: Active; Activity (HCT-116 [8]): Active; Activity (PANC-1): Active; Activity (HCT-116 [9]): Active; Activity (A549): Active; Activity (SW-620): Active; Activity (HCT-116 [10]): Active; Activity (HCT-116 [11]): Active; Activity (HCT-116 [12]): Active; Activity (Medulloblastoma cell [13]): Active
Cc1cc(C(=O)N(CCc2cccs2)C2CCOCC2)no1	1.16	Active	Active	
Cc1cc2c(C(C)C)c(O)c(O)c(C=O)c2c(O)c1-c1c(C)cc2c(C(C)C)c(O)c(O)c(C=O)c2c1O [GOSSYPOL]				Ki [14]: 1.4 µM
Cc1nn(-c2ncc(NC(=O)C3(c4ccccc4)CCOCC3)cn2)c(C)c1C	0.0298	Active	Active	Activity (Medulloblastoma cell [13]): Active
CSc1sc(C(=O)O)cc1-c1nc(-c2ccc(C)cc2)cs1	0.964	Active	Active	

— ChEMBL document CHEMBL5113506, “Discovery of novel human lactate dehydrogenase inhibitors: Structure-based virtual screening studies and biological assessment” (Eur J Med Chem, 2022)
